The target in data set [1] is acetylcholinesterase (AChE) (Homo sapiens, UniProt P22303). As to conditions: colorimetric method; cited from earlier work.
Data set [2] has as its system tyrosine hydroxylase (TH) mRNA in PC12 cells. As to conditions: cited from earlier work.
The subject of data set [3] is Dopamine beta-hydroxylase (DBH) mRNA in PC12 cells. As to conditions: cited from earlier work.
The test system of data set [4] is Kuming mice. As to conditions: acute toxicity study; cited from earlier work.
Data set [5] has as its system mouse microglial cell line MG6. As to conditions: cited from earlier work.
In data set [6] the test system is NO production. As to conditions: cited from earlier work.
Data set [7] relates to NF-κB pathway. As to conditions: cited from earlier work.
The subject of data set [8] is mice ear edema. As to conditions: cited from earlier work.
A short description of data set [9]: Human equivalent dose estimate of the forskolin LD50 (Reagan-Shaw).
Data set [10] has as its system Rat. As to conditions: in vivo; cited from earlier work.
In data set [11] the test system is mouse. As to conditions: cited from earlier work.
The subject of data set [12] is Rat. As to conditions: cited from earlier work.
For data set [13], the system named is mouse endothelial cells. As to conditions: cited from earlier work.
For data set [14], the system named is isolated rat lungs. As to conditions: dose-dependent; cited from earlier work.
For data set [15] the following is noted: cited from earlier work; for half-life: oral.
The test system of data set [16] is diabetic and at-risk-of-diabetes patients. As to conditions: 1.5 to 3 g daily for several years; cited from earlier work.
For data set [17] the following is noted: cited from earlier work.
The conditions of data set [18]: oral intakes up to 4.6 grams per day; cited from earlier work.

Where two headings read alike, the source gives them in different places.

Sequence of acetylcholinesterase (AChE) (P22303 32-614, species assumed): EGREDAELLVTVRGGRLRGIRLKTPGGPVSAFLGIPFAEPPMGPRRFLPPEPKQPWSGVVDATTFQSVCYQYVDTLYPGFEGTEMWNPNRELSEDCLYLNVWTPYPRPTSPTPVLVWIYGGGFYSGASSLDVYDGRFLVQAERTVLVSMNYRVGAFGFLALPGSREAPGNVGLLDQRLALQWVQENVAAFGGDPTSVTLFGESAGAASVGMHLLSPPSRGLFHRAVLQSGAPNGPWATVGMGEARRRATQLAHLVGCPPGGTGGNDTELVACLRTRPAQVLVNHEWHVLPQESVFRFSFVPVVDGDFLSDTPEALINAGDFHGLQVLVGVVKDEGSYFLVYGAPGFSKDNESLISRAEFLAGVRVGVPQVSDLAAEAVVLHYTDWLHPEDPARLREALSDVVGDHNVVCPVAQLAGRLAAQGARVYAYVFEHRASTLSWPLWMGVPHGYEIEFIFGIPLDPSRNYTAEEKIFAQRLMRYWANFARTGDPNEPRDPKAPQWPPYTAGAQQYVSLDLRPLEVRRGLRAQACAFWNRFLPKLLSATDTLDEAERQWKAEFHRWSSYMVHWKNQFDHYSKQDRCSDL

Regarding `CC1=CCC2C(C1)C2(C)C` (single isomer, unassigned; (+)) [(+)-3-carene], the “Inhibition of AChE” value in data set [1] is “potent inhibitors”.
With `CC1=CC[C@@H]2C[C@H]1C2(C)C` [(+)-alpha-pinene], the “Inhibition of AChE” value in [1] was “potent inhibitors”.
With `CC1=CC[C@H]2C[C@@H]1C2(C)C` [(−)-alpha-pinene], the “Inhibition of AChE” value in [1] is listed as “potent inhibitors”.
With `CN1CCCC1c1cccnc1` (centres unmarked) [Nicotine], the “increase of TH mRNA levels” value in data set [2] was 3.3 fold. Also, the “increase of DBH mRNA levels” value in data set [3] was 3.1 fold.
Consider `CC(C)c1cc2c(c(O)c1O)[C@@]1(C(=O)O)CCCC(C)(C)[C@@H]1CC2` [carnosic acid], for which, in data set [4], the “oral lethal dose (LD50)” value is given as 7100 mg/kg of body weight. Besides, the NO production result in data set [5] (associated with decrease in inducible NO synthase) is recorded as “inhibited”. Also, in data set [5] (at the concentrations used), the cell survival result is reported as “Neither CA nor LPS affected cell survival”. Further, the “LPS-induced activation of MG6 cells” value in [5] (in vitro) is “inhibited”.
As for `CC(C)=CCCC(C)=CC=O` [citral], the “NO production inhibitory activity, IC50” value in [6] is 13.18 µg/mL. Besides, the “activity on COX-2” value in [7] is listed as “could not efficiently suppress”. Further, the “expression of IKK, iNOS, and nuclear NF-κB” value in data set [7] (dose-dependent) is reported as “decreased”. Moreover, the “inflammation reduction, ear edema” value in data set [8] (0.1 mg per ear) was 22%; in data set [8] (0.3 mg per ear), 83%.
The term LD50 denotes the dose expected to kill half of the subjects tested. Turning to `C=C[C@@]1(C)CC(=O)[C@]2(O)[C@@]3(C)[C@@H](O)CCC(C)(C)[C@@H]3[C@H](O)[C@H](OC(C)=O)[C@@]2(C)O1` [forskolin], the “estimated LD50 in a person” value in data set [9] (100 pound (45.4 Kg) person) was 18,773.51 mg. Also, the LD50 in data set [9] (rat, oral, 2550×(6/37), Reagan-Shaw, read-out: HED of the rat LD50) was 413 mg/kg. In addition, the “oral LD50 (rat)” value in [10] is on record as 2,550 mg/kg.
A word on the half-life: it is the time in which the quantity being followed falls by half. Regarding `NC(=O)c1cccnc1` [niacinamide, nicotinamide], the 50% lethal dose (LD50) is 2500 mg/kg in data set [11] and 3500 mg/kg in data set [12]. The “SEB-induced endothelial NO production” value in data set [13] (IFN-primed endothelial cells) is given as “significantly reduced”. Further, the “IFN-gamma induction of endothelial class II MHC surface antigen” value in [13] is “markedly reduced”. In [13], the “iNOS mRNA levels” value is given as “reduced”. In addition, the “PMA-induced pathophysiological and biochemical changes (acute lung injury)” value in data set [14] is on record as “diminished”. For the same molecule, the “half-life cautiously assumed for humans” value in data set [15] (agreement of both studies) is 4 h. In addition, the “effect on blood pressure, pulse or body temperature” value in data set [15] (human, oral doses of 1-6 g) is “no detectable effect”. Besides, the half-life is roughly 1.5 h in data set [15] (human, 1-g dose); roughly 4 h in data set [15] (human, 2 g); 7 to 9 h in data set [15] (human, 4 and 6 g). For the same molecule, the “effect on biochemical parameters including liver and kidney function tests” value in [16] is given as “no effect”.
Regarding `CNCC(=O)O` [sarcosine, N-methylglycine], the safety entry in [17] (2 and 4 gm/d for one week) is “appears to be safe”. In data set [17] (human, 2 and 4 gm/d), the “time to peak concentration in serum” value is listed as “two”.
For the molecule phosphatidylcholine [PC], in data set [18], the tolerability entry was “very well tolerated”.

B1: interleukin-10: interleukin-10 (protein, UniProt P22301 19-178, looked up)
Interleukin-10: SPGQGTQSENSCTHFPGNLPNMLRDLRDAFSRVKTFFQMKDQLDNLLLKESLLEDFKGYLGCQALSEMIQFYLEEVMPQAENQDPDIKAHVNSLGENLKTLRLRLRRCHRFLPCENKSKAVEQVKNAFNKLQEKGIYKAMSEFDIFINYIEAYMTMKIRN
In the case of B1, in data set [13], the “IFN-gamma induction of endothelial class II MHC surface antigen” value was “no effect”, the “SEB-induced endothelial NO production” value is “significantly reduced” and the “iNOS mRNA levels” value is on record as “did not consistently reduce”.

Values taken from US9463210B1, “Method for alleviating cravings and discomfort associated with smoking cessation8” (priority 2015, dated 2016).
